From patent US6518315B1, “Medicinal uses of phenylaikanols and derivatives” (The University of Sydney, priority 1997, dated 2003)
Like-named read-outs stand apart in the source and are kept apart here.

Tests used:
[1] = tested on: left atrium guinea pig; assay: Cardiovascular and neuro-effector junction activities: left atrium, guinea pig
Procedure: In later studies positive inotropic activity was observed as a 50% increase on driven guinea pig left atria at 10 μM.
No effect was observed on nerve stimulation in atria.
(§1) Therefore, further investigation of the physicochemical properties as well as mechanism(s) of action of these substances, including gingerols, is required in relation to cardiotonicity. The mode of action of gingerols as cardiotonic agents has been […] and it was proposed that they act by direct stimulation of the cardiac SR Ca^2+-ATPase. This may load extra calcium into the intracellular stores in the sarcoplasmic reticulum allowing more calcium to be released on stimulation of the heart resulting in increased cardiac contractility. […] The cardiotonic action of 1-(4-hydroxy-3-methoxyphenyl)dodecan-3-ol [3.93] was confirmed from independent studies, carried out at our request as part of our agreement with Johnson & Johnson Research Ltd (J&J), by Prof. James Angus from the University of Melbourne. […] A tachycardial effect of the substance on guinea pig atria was, however, observed at significant rate, 50-60% of isoprenaline Emax and the response was not α- or β-adrenoceptor mediated.
(§2) Cardiovascular and Neuro-effector Junction Activities of Gingerol Analogues

[2] = tested on: guinea pig atria; assay: Organ bath assay, isolated guinea pig atria (rate and force of contraction)
Procedure: Male guinea pigs, 3-4 weeks old, were killed by rapid cervical dislocation without induced anaesthesia. Then, the guinea pigs were dissected to isolate the atria which were immediately mounted vertically in an organ bath containing Krebs-Henseleit solution oxygenated with carbogen.
One gram tension was applied to the atria and the base line continuously adjusted until it was stable for 20 mins. The rate and force of contraction were recorded using Mac Lab equipment.
Test substances in DMSO were assayed to a maximum concentration of 50 μM at a final concentration of 2.5% of DMSO.

[3] = tested on: vas deferens rat; assay: Cardiovascular and neuro-effector junction activities: vas deferens, rat; conditions: 10^−4 M
Description: as §1, §2

[4] = tested on: capsaicin-sensitive DRG neuronal cells; assay: [Ca^2+]i transients in DRG neuronal cells in culture; type: cell-based, rat
Description: Effect of Gingerol Analogues Towards Rat Dorsal Root Ganglia
Capsaicin, the pungent component in peppers of the Capsicum genus, family Solanaceae, has the ability to excite a subset of sensory neurons, which include polymodal nociceptors and warm thermoceptors (Fitzgerald, 1983) by opening non-selective cation channels that are permeable to Na^+, K^+, and Ca^2+ (Bevan and Szolcsanyi, 1990). It has been shown that capsaicin evoked a concentration-dependent rise in [Ca^2+]i in cultured dorsal root ganglion neurons. The duration of the elevation of [Ca^2+]i depended on the concentration of capsaicin (Choleswinski, et al., 1993). In this investigation peak [Ca^2+]i transient measurements are used as a model for testing gingerol analogues.
DRG from neonatal (3-5 days old) rat or adult Sprague-Dawley rats were incubated in Hanks CMF saline with 0.05% collagenase and 0.25% trypsin for 25 min at 37° C. Individual cells were obtained by trituration with fire polished Pasteur pipettes of diminishing diameters. Neurones were isolated from the cell suspension in 30% Percoll and then plated on collagen coated coverslips or in 24-well plates, then cultured in neurobasal medium with B27 supplement, 50 ng/ml 2.5 S nerve growth factor, 2 mM 1-glutamine and 100 U/ml penicillin/streptomycin. Cultures were maintained at 37° C. with 5% CO2. 30% Percoll increases the percentage of capsaicin-sensitive DRG neurones up to 70%. For peak [Ca^2+]i transients measurements, cells on coverslips were incubated with 5 μM Fura-2 AM for 30 min at 37° C. The coverslips were then mounted on a chamber attached to a fast sample application perfusion system which allows changing solutions in the second range. Recordings were made on the stage of a Nikon Diaphot inverted microscope fitted with a Nikon 40×Fluo (NA 0.85) DL Ph3 or 40×Fluo (NA 1.3) oil objective. [Ca^2+]i was calculated from dual excitation wavelength (340/380 nm) fluorescence measurements following an intracellular calibration procedure by the Grynkiewicz equation, using MCID M2/M4 v.3.0 (Imaging Res. Inc.) software. Cells were continuously perfused with a solution consisting of 140 mM NaCl, 2 mM CaCl2, 5 mM KCl, 20 mM HEPES, 10 mM glucose, pH 7.4. To study KCl evoked depolarisation, 50 mM NaCl was replaced by equimolar KCl. Cytoplasmic localisation of Fura-2 was tested with the Mn^2+ quenching technique (Dedov and Roufogalis, 1998). All experiments were performed at room temperature (20-23° C.).
Typical changes in [Ca^2+]i upon depolarisation were evoked by 50 mM KCl and by application of 1 μM capsaicin; both were applied for 30 sec. Capsaicin-evoked peak [Ca^2+]i transients are characterised by a fast rise and long-steady state [Ca^2+]i clearance from the cytoplasm. In capsaicin-sensitive cells the half-time of cytoplasmic Ca^2+ clearance was proportional to the amplitudes of peak [Ca^2+]i transients.
To examine the effect of gingerol derivatives, one or several compounds in succession at a concentration of 10 μM were applied for 1 min to the DRG neuronal cells followed by washing out for 4 min with physiological solution. To the capsaicin-sensitive cells, 10 μM capsaicin and 50 mM KCl were applied, respectively, to confirm the viability of the cells. In addition, morphological appearances of the cells were also examined at the end of experiment. […]

[5] = tested on: diaphragm rat; assay: Cardiovascular and neuro-effector junction activities: diaphragm, rat; conditions: 10^−5 M
Description: as §1, §2

[6] = tested on: left atrium rat; assay: Cardiovascular and neuro-effector junction activities: left atrium, rat; conditions: 10^−7-3 × 10^−5 M
Description: as §1, §2

[7] = tested on: cardiac Purkinje fibres; assay: Cardiac electrophysiology on Purkinje fibres; set-up: species or system dog; conditions: up to 10 μM
Procedure: Cardiac Electrophysiological Activities of Gingerol and its Analogue
The basic cardiac electrophysiological properties were assessed using cardiac Purkinje fibres obtained from adult mongrel dogs.
Electrophysiology was carried out on dog heart purkinje fibre to test for potential arrhythmia. […] At high concentration (50 μM), however, [8]-gingerol reduced approximate 80% and 50% of action potential duration at 50% and 90% repolarisations respectively. Whereas the analogue reduced 75% and 30% respectively.

[8] = tested on: right atrium guinea pig; assay: Cardiovascular and neuro-effector junction activities: right atrium, guinea pig; conditions: 10^−7-3 × 10^−5 M; not blocked by praz., prop.
Description: as §1, §2

[9] = tested on: rat mesenteric artery; assay: Vasodilation on rat mesenteric artery
Description: The proposed mechanism of neuropeptide release by 1-(4-hydroxy-3-methoxyphenyl)dodecan-3-ol, similar to that of capsaicin, was supported by studies in blood vessels. […] This contrasts with capsaicin which has similar activity in Guinea pig atria (force and rate) and relaxing rat mesenteric artery.

[10] = tested on: rabbit platelet-rich plasma; assay: Antiplatelet aggregation screen with arachidonic acid as substrate; type: cell-based
[11] = tested on: right atrium rat; assay: Cardiovascular and neuro-effector junction activities: right atrium, rat; conditions: 3 × 10^−7-3 × 10^−6 M, with propranolol present
Description: as §1, §2

[12] = tested on: brine shrimp (Artemia salina Leach); assay: Brine shrimp assay; type: in vivo; conditions: for LC50: 24 hours, 2% DMSO
Description: Toxicity—Brine Shrimp Assay
The brine shrimp assay procedure determines LC50 values of active compounds. Activities of a broad range of known active compounds are manifested as toxicity to brine shrimp (Artemia salina Leach). There are many applications of the assay including analysis of toxic substances, anaesthetics, morphine-like substances and cocarcinogenicity of phorbol esters.
DMSO (dimethyl sulfoxide) was the solvent of choice because of its good solubilising properties and also because the substances used in the ATPase inhibition assays were already prepared with DMSO.
The method for testing solvent toxicity used was basically that reported by J L McLaughlin in Methods of Plant Biochemistry (1991), vol. 6 (K Hostettman, ed.), Academic Press, London, 1-32. DMSO solutions of the substances to be tested were added directly to the vials containing the brine shrimp. As the concentration of DMSO is that we wished to use was higher than the recommended 1% v/v testing of the toxicity of the DMSO was therefore necessary. The concentrations of DMSO tested on the shrimp, along with the results from the assay which was done in duplicate are listed below.
Brine shrimp toxicity was assayed, except for some minor modifications, according to the method of McLaughlin et al as reported in Brine Shrimp: A convenient bioassay for active plant constituents, B N Meyer, N R Ferrigni, J E Putnam, L B Jacobsen, D E Nichols and J L McLaughlin in Planta Medica (1982), 45, 31-34 and Crown gall tumours on potato discs and brine shrimp lethality: Two simple bioassays for higher plant screening and fractionation. J L McLaughlin. Methods of Plant Biochemistry (1991), vol. 6 (K Hostettman, ed.), Academic Press, London, 1-32. Ten shrimp were transferred to each of the vials and the volume adjusted to 4.9 mL. Each dose was performed in triplicate, including the control. In quick succession, the appropriate volume of additional DMSO for each dose, required to achieve a final concentration of 2%, was added before the appropriate volume of test solution. The vials were gently mixed and the time noted. After 24 hours, the number of survivors were counted and % mortality was determined. The test compounds were assayed at concentrations of 100 μM, 25 μM, 5 μM, 1 μM and 0.2 μM (and where appropriate concentrations of 0.04 μM and 0.008 μM).
The brine shrimp were able to survive without food in the vials over the 24 hour period and were therefore not fed.
The dose-response curves were constructed using the Sigmaplot computer program and the LC50 value was calculated from the intersection point of the curve and the 50% mortality line. The LC50 values were expressed in both μM and μg/mL.
For substances with low toxicity, the greater sign “>” indicated the highest concentration at which the assay was carried out as precipitation of the substances occurred above that concentration.

[13] = tested on: brine shrimp (Artemia salina Leach); conditions: in vivo; cited from earlier work

SMILES: CCCCCCCC(O)CC(=O)c1ccc(O)c(OC)c1 (stereo not shown) [3-hydroxy-1-(4-hydroxy-3-methoxyphenyl)decan-1-one]
- effect on isoprenaline response, left atrium guinea pig ([1]; up to 30 μM): no effect
- FORCE OF CONTRACT^n (inotropic activity), result in words ([2]; assayed to a maximum of 50 μM): negative inotropic activity
- HEART RATE (chronotropic activity), result in words ([2]; assayed to a maximum of 50 μM): negative chronotropic activity
- effect on vas deferens rat [3]: no effect
- Peak [Ca^2+]i (Average ± SD) ([4]; 10 μM applied for 1 min, 2 mM Ca^2+): 0 nM
- effect on diaphragm rat [5]: no effect
- effect on left atrium rat [6]: no change
- effect on rate of depolarization, amplitude and duration of action potential (50% and 90%) ([7]; listed as 3-hydroxy-1-(4-hydroxy-3-methoxyphenyl)decanone): only a small effect
- effect on rate of depolarization, amplitude and duration of action potential (50% and 90%) ([7]; listed as 3.92): insignificant effect

SMILES: CCCCCCCCCC(O)CCc1ccc(O)c(OC)c1 (stereo not shown) [1-(4-hydroxy-3-methoxyphenyl)dodecan-3-ol]
- effect on rate, right atrium guinea pig [8]: tachycardia
- arrhythmia on guinea pig driven left atria ([1]; 1 μM): followed by arrhythmia
- inotropic effect, % isopren. max., left atrium guinea pig ([1]; 10^−6-3 × 10^−5 M): ˜20%
- inotropism, left atrium guinea pig ([1]; 10^−6-3 × 10^−5 M (not in rat)): inotropic
- potency (EC50) for relaxation of mesenteric artery relative to inotropic effect in guinea pig atrium [9]: 100 fold
- relaxing vasopressin-contracted rat mesenteric small arteries ([9]; 10^−8 to 10^−6 M, 200-300 μm diameter): very potent
- potency of one enantiomer relative to the other in increasing force of contraction in guinea pig atria [2]: 100 fold
- FORCE OF CONTRACT^n, ↑ increase ([2]; @ 10 (μM)): ↑108% @ 10
- evoked [Ca^2+]i transients in Ca^2+-free medium or with ruthenium red ([4]; Ca^2+-free medium or ruthenium red (1 μM)): abolished or greatly diminished
- platelet function via adenosine diphosphate or thromboxane A mechanisms [10]: did not affect
- antiplatelet aggregation potency relative to indomethacin ([10]; arachidonic acid as substrate, listed as 3-hydroxy-1-(4-hydroxy-3-methoxyphenyl)dodecane): three time more potent than the indomethacin reference compound
- effect on rate, right atrium rat [11]: tachycardia
- toxicity towards brine shrimp, in words ([12]; in vivo): low toxicity

SMILES: COc1cc([C@@H]2c3cc4c(cc3[C@H](O)[C@H]3COC(=O)[C@H]23)OCO4)cc(OC)c1OC [podophyllotoxin, reference compound]
- LC50 determined by Meyer et al. (1982) [13]: (2.4) μg/ml
- LC50 [12]: 1.6 µg/mL
- LC50 ([12]; read-out: LC50): 3.8 µM
